From patent publication US7442715B2, “Thiazole derivatives” (Astellas Pharma Inc., priority 2003, dated 2008)
Where a name gives a salt, the structure may show the parent alone.

Experiments:
Rat plasma SSAO = target: T1, Rat plasma SSAO (Rattus norvegicus, UniProt O08590); test: VAP-1 enzyme (SSAO) activity in rat plasma, radiochemical-enzyme assay with 14C-benzylamine; assay type: biochemical
T1 construct: The enzyme suspension prepared from blood plasma was pre-incubated with Compound A; from tissue; host or cells: rat blood plasma
T1 sequence (O08590 29-763 limits assumed): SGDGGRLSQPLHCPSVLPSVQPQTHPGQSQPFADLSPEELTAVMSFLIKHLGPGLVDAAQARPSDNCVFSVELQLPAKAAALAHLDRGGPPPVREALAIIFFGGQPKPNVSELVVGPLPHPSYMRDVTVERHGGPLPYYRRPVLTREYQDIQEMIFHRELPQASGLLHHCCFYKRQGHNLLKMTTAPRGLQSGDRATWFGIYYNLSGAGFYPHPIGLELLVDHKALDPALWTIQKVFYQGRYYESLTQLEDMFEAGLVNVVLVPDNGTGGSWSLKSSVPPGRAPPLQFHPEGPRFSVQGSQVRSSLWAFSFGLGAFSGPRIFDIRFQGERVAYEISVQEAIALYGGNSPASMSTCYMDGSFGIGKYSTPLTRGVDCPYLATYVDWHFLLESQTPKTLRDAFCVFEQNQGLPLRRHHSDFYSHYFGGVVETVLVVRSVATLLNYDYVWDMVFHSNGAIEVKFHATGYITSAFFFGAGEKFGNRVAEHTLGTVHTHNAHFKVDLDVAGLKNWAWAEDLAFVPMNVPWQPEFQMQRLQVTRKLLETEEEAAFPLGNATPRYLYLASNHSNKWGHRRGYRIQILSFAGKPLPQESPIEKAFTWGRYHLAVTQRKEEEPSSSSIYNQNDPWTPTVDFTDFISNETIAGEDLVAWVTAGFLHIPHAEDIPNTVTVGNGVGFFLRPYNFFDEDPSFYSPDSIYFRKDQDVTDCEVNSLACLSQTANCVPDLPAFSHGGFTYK
Experimental: (§1) VAP-1 enzyme (SSAO) activity in both human and rat plasma was determined by a radiochemical-enzyme assay using ^14C-benzylamine as artificial substrate. The enzyme suspension prepared from blood plasma was pre-incubated with Compound A in 96-well microplate at room temperature for 30 min. The enzyme suspension was then incubated with ^14C-benzylamine (2×10^−5 mol/l final concentration) in a final volume of 50 μl at 37° C. for 1 hour. The enzyme reaction was terminated by adding 2 mol/l (50 μl) citric acid. The oxidized products were directly extracted into a 200 μl toluene scintillator, and its radioactivity was measured by a scintillation spectrometer. Monoamine oxidase (MAO) and diamine oxidase (DAO, histaminase) activities were also determined by similar method using ^14C-phenylethylamine and ^14C-putrescine as substrate, respectively. Cloned DAO from cDNA libraries was used in human DAO assay. Inhibition activity was expressed as IC50 (μmol/l) value.

plasma SSAO = target: T2, plasma SSAO (Rattus norvegicus, UniProt O08590); test: Plasma SSAO activity in STZ-induced diabetic rats after treatment; assay type: in vivo
T2 construct: from tissue; host or cells: plasma of STZ-induced diabetic rats
T2 sequence (O08590 29-763 limits assumed): T1 sequence (O08590 29-763 limits assumed)
Experimental: Diabetes in rat was induced with an intraperitoneal (i.p.) injection of 65 mg/ml/kg of streptozotocin (STZ) in 2 mmol/l citrate buffer (pH 4.5) after a 20-h fast. At the same time control rat were injected with an equal volume of 2 mmol/l citrate buffer. Plasma glucose level was checked by a calorimetric method. At day 3 of STZ treatment, the rat was diagnosed with diabetes showing a plasma glucose level of 350 mg/dl.
The treatment of Compound A was given daily from 2 weeks after STZ treatment for 2 weeks. At 24 hrs after final treatment of Compound A, the vascular permeability in oculus was investigated based on the leakage of dye into the vitreous 30 min after intravenous injection of fluorescein solution (40 mg/ml/kg). Permeability was expressed as vitreous/plasma ratio of fluorescein concentration measured by a fluorophotometer. At the same time, the plasma SSAO activity was checked by the radiochemical-enzyme assay using ^14C-benzylamine (2×10^−5 mol/l final concentration) as substrate.

Human plasma SSAO = target: T3, Human plasma SSAO (Homo sapiens, UniProt Q16853); test: VAP-1 enzyme (SSAO) activity in human plasma, radiochemical-enzyme assay with 14C-benzylamine; assay type: biochemical
T3 construct: The enzyme suspension prepared from blood plasma was pre-incubated with Compound A; from tissue; host or cells: human blood plasma
T3 sequence (Q16853 29-763 limits assumed): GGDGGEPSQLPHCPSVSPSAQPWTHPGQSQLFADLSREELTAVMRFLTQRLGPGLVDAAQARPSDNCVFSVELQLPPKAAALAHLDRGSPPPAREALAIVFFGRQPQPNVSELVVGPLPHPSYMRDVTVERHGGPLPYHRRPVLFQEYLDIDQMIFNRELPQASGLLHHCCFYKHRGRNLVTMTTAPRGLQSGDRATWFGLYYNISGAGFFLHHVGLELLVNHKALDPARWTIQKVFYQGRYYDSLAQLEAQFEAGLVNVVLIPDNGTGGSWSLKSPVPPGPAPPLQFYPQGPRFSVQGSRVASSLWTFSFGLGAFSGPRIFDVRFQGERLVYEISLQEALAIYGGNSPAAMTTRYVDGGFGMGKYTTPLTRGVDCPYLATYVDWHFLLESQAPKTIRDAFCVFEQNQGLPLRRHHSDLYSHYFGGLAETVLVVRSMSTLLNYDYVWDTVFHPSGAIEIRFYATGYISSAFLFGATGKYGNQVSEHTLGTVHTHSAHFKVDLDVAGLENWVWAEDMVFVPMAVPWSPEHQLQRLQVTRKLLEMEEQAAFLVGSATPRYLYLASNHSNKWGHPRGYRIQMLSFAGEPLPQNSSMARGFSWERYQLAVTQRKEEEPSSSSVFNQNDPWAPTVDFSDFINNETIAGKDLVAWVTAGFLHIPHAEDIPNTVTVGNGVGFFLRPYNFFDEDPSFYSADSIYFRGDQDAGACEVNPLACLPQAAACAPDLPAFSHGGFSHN
Experimental: as §1

Compound | melting point [°C] | other results
CC(=O)Nc1nc(CCc2ccc(C(=O)NC(=N)N)cc2)c(Cc2ccc(S(C)(=O)=O)cc2)s1 [Production Example 106, 4-(2-{2-(acetylamino)-5-[4-(methylsulfonyl)benzyl]-1,3-thiazol-4-yl}ethyl)-N-[amino(imino)methyl]benzamide] | 108 to 109.5 | –
CC(=O)Nc1nc(CCc2ccc(NC(=N)N)cc2)cs1 [Compound A, N-{4-[2-(4-{[amino(imino)methyl]amino}phenyl)ethyl]-1,3-thiazol-2-yl}acetamide] | – | Inhibition of enzyme activity of rat plasma SSAO (in words) (Rat plasma SSAO): completely inhibited; Plasma SSAO activity (plasma SSAO; STZ diabetic rats, daily treatment for 2 weeks from 2 weeks after STZ, 14C-benzylamine 2×10^−5 mol/l, mean±S.E.M., 10 rats): 2.51 ± 0.26 pmol/min/mL; Effect on increased plasma SSAO activity in diabetic rats (in words) (plasma SSAO; diabetic rats at 4 weeks after STZ treatment): dose-dependent inhibition of the increased plasma SSAO activity; Inhibition of enzyme activity of human plasma SSAO (in words) (Human plasma SSAO): completely inhibited
CC(=N)Nc1ccc(CCc2nc(NC(C)=O)sc2Cc2ccc(S(C)(=O)=O)cc2)cc1 [Production Example 56, N-{4-{2-[4-(ethanimidoylamino)phenyl]ethyl}-5-[4-(methylsulfonyl)benzyl]-1,3-thiazol-2-yl}acetamide] | 81.5 to 83 | –
CC(=O)Nc1nc(CCc2ccc(NC(=N)N)cc2)c(Cc2ccc(S(C)(=O)=O)cc2)s1 [Production Example 48, N-{4-[2-(4-{[amino(imino)methyl]amino}phenyl)ethyl]-5-[4-(methylsulfonyl)benzyl]-1,3-thiazol-2-yl}acetamide] | 228 to 229.5 | –
CC(=O)Nc1nc(CCc2ccc(NC(=N)N)cc2)c(C(=O)NCc2ccc([N+](=O)[O-])cc2)s1.Cl | 138 to 140 | –

The next lines start with results.

melting point [°C] | Compound | other results
218 to 219.5 | CC(=O)Nc1nc(CCc2ccc(NC3=NCCS3)cc2)cs1 [Production Example 2, N-(4-(2-(4-(4,5-dihydro-1,3-thiazol-2-ylamino)phenyl)ethyl)-1,3-thiazol-2-yl)acetamide] | –
216.5 to 218 | CC(=O)Nc1nc(CCc2ccc(NC(=N)NN)cc2)cs1 [Production Example 58, N-{4-[2-(4-{[hydrazino(imino)methyl]amino}phenyl)ethyl]-1,3-thiazol-2-yl}acetamide] | –
190.5 to 192 | CC(=O)Nc1nc(CCc2ccc(CC(=N)N)cc2)cs1 (as salt: hydrochloride) [Production Example 59, N-(4-{2-[4-(2-amino-2-iminoethyl)phenyl]ethyl}-1,3-thiazol-2-yl)acetamide] | –
130 to 130.5 | CC(=O)Nc1nc(CCc2ccc(CON)cc2)cs1 [Production Example 16, N-[4-(2-{4-[(aminooxy)methyl]phenyl}ethyl)-1,3-thiazol-2-yl]acetamide] | –
229.5 to 231 | CC(=O)Nc1nc(CCc2ccc(C(=N)N)cc2)cs1.Cl | –
